According to US20240208961A1, “EIF4E INHIBITORS AND USES THEREOF” (PIC Therapeutics, Inc., priority 2022, published 2024):

Key:
ZR-75-1 [1] = test: ZR-75-1 compound screening cell viability, Alamar Blue (Example 6); assay type: cell-based; conditions: ZR-75-1 cells, Media 1% FBS, read-out: ZR-75-1 Cell Viability, 4 Days: IC50
ZR-75-1 [2] = test: Cell viability assay, adherent cell line, 5 day Alamar Blue (Example 8): ZR-75-1; assay type: cell-based; conditions: ZR-75-1, Breast Cancer Cell Viability
Protocol: Cell viability assays were performed on certain compounds of the disclosure, according to the following procedure.
Cell line specific media conditions used:
The procedure for adherent cell line compound screening was as follows:
• Cells were seeded in 96-well cell culture treated tissue culture plates: ZR-75-1, NIHOVCAR3, T47D, and LOVO cells 4000 cells/well; and HPAFII 3000 cell/well
Day 3: Compound Dilution and Dosing
• 5-fold serial dilution (8 point) of each compound in DMSO 0-25 mM in compound storage plates was prepared (stored at −80° C. if not to be used immediately). • Cells were rinsed with 1% FBS Media (appropriate to cell line as described above) and replaced with 87.5 μL media prior to dosing. HPAFII was screened in normal 10% FBS Media. • DMSO compound dilution series was diluted in 1% FBS media (appropriate to cell line as described above)—2 μL in 248 μL to give an 8× final concentration. • Cells were dosed 12.5 μL/well in triplicate to give final dose curved on cells 0-25 μM. • Media blank 100 μL/well×8 was set up. • All plates were incubated at 37° C.
Day 8: 5 Day Viability Assay
• Alamar Blue viability reagent was added (10 μL per well) and incubated for 3 hours at 37° C. prior to fluorescence detection (Ex560 nm/Em590 nm) on a Varioskan Lux multimode plate reader.
Results from cell viability assays are summarized in Table 23, wherein A represents IC50≤1 μM; B represents 1 μM<IC50≤8 μM; and C represents IC50>8 μM. Blank cells indicate that the compound was not tested in a particular assay.

Molecule `CC(C)c1cnc(Nc2ncc(-c3cccs3)cc2C(=O)O)s1` [Compound I-16] has an IC50 (ZR-75-1 [1]; Homo sapiens, 96 h) of over 8 µM and an IC50 (ZR-75-1 [2]; Homo sapiens, 120 h) of over 8 µM.
In the case of `CC(C)Cc1sc(Nc2ncc(-c3cccs3)cc2C(=O)O)nc1C1CCCC1` [Compound I-6, 2-((4-cyclopentyl-5-isobutylthiazol-2-yl)amino)-5-(thiophen-2-yl)nicotinic acid], the IC50 (ZR-75-1 [1]; Homo sapiens, 96 h) is reported as under 1 µM and the IC50 (ZR-75-1 [2]; Homo sapiens, 120 h) is reported as at most 1 µM.
Work on `Cc1nc(Nc2ncc(-c3cccs3)cc2C(=O)O)sc1C` [Compound I-14] yielded an IC50 (ZR-75-1 [1]; Homo sapiens, 96 h) of 1 to 8 µM and an IC50 (ZR-75-1 [2]; Homo sapiens, 120 h) of 1 to 8 µM.
`CC(C)c1sc(Nc2ncc(-c3cccs3)cc2C(=O)O)nc1C(C)(C)C` [Compound I-25] was tested, and the IC50 (ZR-75-1 [2]; Homo sapiens, 120 h) was 1 to 8 µM.
Work on `CC(C)c1sc(Nc2ncc(-c3cccs3)cc2C(=O)O)nc1C1=CCCC1` [Compound I-9] yielded an IC50 (ZR-75-1 [1]; Homo sapiens, 96 h) of under 1 µM and an IC50 (ZR-75-1 [2]; Homo sapiens, 120 h) of at most 1 µM.
With `O=C(O)c1cc(-c2cccs2)cnc1Nc1nccs1` [Compound I-15] the IC50 (ZR-75-1 [1]; Homo sapiens, 96 h) was over 8 µM and the IC50 (ZR-75-1 [2]; Homo sapiens, 120 h) was over 8 µM.
Molecule `CC(C)Cc1sc(Nc2ncc(-c3cccs3)cc2C(=O)O)nc1C(C)C` [Compound I-26] has an IC50 (ZR-75-1 [2]; Homo sapiens, 120 h) of at most 1 µM.
Work on `CC(C)c1sc(Nc2ncc(-c3cccs3)cc2C(=O)O)nc1C1CCC(F)(F)CC1` [Compound I-31] yielded an IC50 (ZR-75-1 [2]; Homo sapiens, 120 h) of 1 to 8 µM.
In the case of `CC(C)Cc1cnc(Nc2ncc(-c3cccs3)cc2C(=O)O)s1` [Compound I-18], the IC50 (ZR-75-1 [1]; Homo sapiens, 96 h) is reported as 1 to 8 µM and the IC50 (ZR-75-1 [2]; Homo sapiens, 120 h) is reported as 1 to 8 µM.
Work on `COC(=O)c1cc(-c2cccs2)cnc1Nc1nc(C2=CCC(F)(F)CC2)c(CC(C)C)s1` [Compound I-5, methyl 2-((4-(4,4-difluorocyclohex-1-en-1-yl)-5-isobutylthiazol-2-yl)amino)-5-(thiophen-2-yl)nicotinate] yielded an IC50 (ZR-75-1 [1]; Homo sapiens, 96 h) of over 8 µM and an IC50 (ZR-75-1 [2]; Homo sapiens, 120 h) of over 8 µM.
Molecule `Cc1nc(Nc2ncc(-c3cccs3)cc2C(=O)O)sc1CC(C)C` [Compound I-17] has an IC50 (ZR-75-1 [1]; Homo sapiens, 96 h) of over 8 µM and an IC50 (ZR-75-1 [2]; Homo sapiens, 120 h) of over 8 µM.
In the case of `CC(C)Cc1sc(Nc2ncc(-c3cccs3)cc2C(=O)O)nc1C(F)(F)F` [Compound I-22], the IC50 (ZR-75-1 [1]; Homo sapiens, 96 h) is reported as 1 to 8 µM and the IC50 (ZR-75-1 [2]; Homo sapiens, 120 h) is reported as 1 to 8 µM.
Molecule “2-((4-(cyclopent-1-en-1-yl)-5-isobutylthiazol-2-yl)amino)-5-(thiophen-2-yl)nicotinic acid [Compound I-7]” has an IC50 (ZR-75-1 [1]) of under 1 µM and an IC50 (ZR-75-1 [2]) of over 8 µM.
Work on `CC(C)Cc1sc(Nc2ncc(-c3cccs3)cc2C(=O)O)nc1C1CC1` [Compound I-10] yielded an IC50 (ZR-75-1 [1]; Homo sapiens, 96 h) of 1 to 8 µM and an IC50 (ZR-75-1 [2]; Homo sapiens, 120 h) of 1 to 8 µM.
In the case of `O=C(O)c1cc(-c2cccs2)cnc1Nc1nc(C(F)(F)F)cs1` [Compound I-12], the IC50 (ZR-75-1 [1]; Homo sapiens, 96 h) is reported as 1 to 8 µM and the IC50 (ZR-75-1 [2]; Homo sapiens, 120 h) is reported as 1 to 8 µM.
